From patent US20200163885A1, “COMPOSITION FOR DELIVERING PHYSIOLOGICALLY ACTIVE INGREDIENTS INTO BLOOD VESSEL” (LEMONEX INC., priority 2017, published 2020)

How the values were obtained:
[1] = Bioactive material loading capacity of porous silica particles; type: physicochemical; conditions: particles of Example 2-(3)-4)-(i), distilled water, 1 hour
Procedure: After loading the negatively charged porous silica particles of Example 2-(3)-4)-(i) with doxorubicin, the absorbance of the supernatant was measured to determine an amount of loaded doxorubicin, and a loading rate (“loading capacity”) of the particles was calculated.
Specifically, 5 mg of porous silica particle powders and 2 mg of doxorubicin were mixed in 1 ml of distilled water, and then settled at room temperature for 1 hour. Subsequently, the solution was centrifuged at 8000 rpm for 10 minutes to settle the particles, and absorbance (λab=480 nm) of the supernatant was measured to determine an amount of the low molecular weight compound remaining in the supernatant without loading. Further, an amount of the loaded low molecular weight compound was calculated (an amount of the loaded low molecular weight compound=an amount of initially added low molecular weight compound−an amount of the low molecular weight compound remaining in the supernatant) so as to determine the loading capacity (loading capacity=bioactive material/porous silica particles, w/w %)
After loading the negatively charged porous silica particles in Example 2-(3)-4)-(i) with irinotecan, absorbance of the supernatant was measured and an amount of loaded irinotecan was calculated, and the loading capacity thereof was determined. […]

[2] = Release of bioactive materials from loaded porous silica particles; type: physicochemical; conditions: doxorubicin loaded on porous silica particles, SBF (pH 7.4), 37° C.
Procedure: 5 mg of porous silica particles loaded with doxorubicin ([…]) was dispersed in SBF (pH 7.4) (total volume: 1 ml), and then the solution was placed in a 1.5 ml tube and maintained in a dynamic condition of performing horizontal agitation at 20 rpm and 37° C. At each time point, the porous silica solution loaded with doxorubicin was settled using a centrifuge, and the absorbance (λa,b=480 nm) of the supernatant was measured to determine an amount of released doxorubicin.
10 mg of porous silica particles loaded with doxorubicin (2 mg) were dispersed in SBF (pH 7.4) inside a dialysis membrane (total volume: 0.5 ml), and then the dialysis membrane was placed in a 1.5 ml SBF tube (pH 7.4) and maintained in static conditions at 37° C. At each time point, the porous silica solution loaded with doxorubicin was settled using a centrifuge, and the absorbance (λab=480 nm) of the supernatant was measured to determine an amount of released doxorubicin.
The solution was maintained in a dynamic condition of performing horizontal agitation at 200 rpm and 37° C.
[…] of porous silica particles loaded with sorafenib (0.1 Mg) were dispersed in 10 ml of 1×PBS. The solution was maintained under a dynamic condition of performing horizontal agitation at 200 rpm and 37° C. At each time point, the porous silica solution loaded with sorafenib was settled using a centrifuge, and the absorbance (λab=270 nm) of the supernatant was measured to determine an amount of released sorafenib.
0.1 mg of particles loaded with retinoic acid were placed in a PBS (pH 7.4) solution containing 5% ethanol and maintained at 37° C. while performing horizontal agitation.
5 mg of particles loaded with p53 peptide were placed in 5 ml of 1×PBS containing 10% FBS or 5 ml of 1×PBS, and maintained under a dynamic environment while rotating at 20 rpm and 37° C. At each time point, centrifugation was conducted at 8500 rpm and a fluorescence intensity of 5(6)-carboxyfluorescein (FAM), which is a fluorescent label bound to p53 peptide from the supernatant ([…]: 480 nm, Emission: 520 nm).
10 μl of porous silica particles loaded with Cy5-siRNA was resuspended in SBF (pH 7.4, 37° C.) (total volume: 0.5 ml) and placed in a 1.5 ml tube. Release of siRNA was performed while horizontally agitating at 60 rpm and 37° C. At each time point, the siRNA-loaded porous silica solution was settled using a centrifuge, and a fluorescence intensity of the supernatant was measured.
20 μg of porous silica particles loaded with siRNA (1 μg) of the above 1) was dispersed in SBF (pH 7.4) inside a dialysis membrane (total volume: 0.5 ml), and the dialysis membrane was placed in a 1.5 ml SBF (pH 7.4) tube, and static conditions at 37° C. were maintained. At each time point, the siRNA-loaded porous silica solution was settled using a centrifuge, and the absorbance (λab=480 nm) of the supernatant was measured to determine an amount of released siRNA.
20 μg of porous silica particles loaded with pDNA (1 μg) were dispersed in SBF (pH 7.4) inside a dialysis membrane (total volume 0.5 ml), and the dialysis membrane was placed in a 1.5 ml SBF (pH 7.4) tube while shaking at 60 rpm and 37° C. At each time point, the porous silica solution loaded with pDNA was settled using a centrifuge and the absorbance (λab=480 nm) of the supernatant was measured to determine an amount of released pDNA.
Porous silica particles loaded with linear DNA (3 μg of linear DNA, 100 μg of porous silica particles) were resuspended in PBS (pH 7.4, 37° C.), and a dialysis membrane having a pore diameter of 20 kDa (the same tube as the tube in FIG. 18). After placing the suspension in the membrane, a dialysis tube was soaked in 1.5 ml of PBS.

HepG2 cells = assay: Delivery through intravenous injection, HepG2 Xeno; type: in vivo, Balb/C nude mouse; conditions: loaded on particles of Example 2-(3)-4)-(i), tail vein, 4 mg/kg
Procedure: Xeno was prepared in Balb/C nude mouse using HepG2 cells as a human liver cancer cell line. […] An injecting dose of doxorubicin was 4 mg/kg (mouse weight), and 80 μg of doxorubicin and 160 μg of particles were used based on an average body weight of 20 g of 5 to 8-week old Balb/C nude mouse.

[3] = static condition, dialysis membrane

COc1cccc2c1C(=O)c1c(O)c3c(c(O)c1C2=O)C[C@@](O)(C(=O)CO)C[C@@H]3O[C@H]1C[C@H](N)[C@H](O)[C@H](C)O1 [doxorubicin]
loading of doxorubicin on the particles (colour of solution after centrifugation) [1]: mostly loaded on the particles | time to reach a release rate of 50% ([2]; dynamic condition, 20 rpm): about 1.5 hours | time up to which continuously released ([2]; dynamic condition, 20 rpm): ≥ 12 h | time to reach a release rate of 50% [2, 3]: about 6 days | time up to which continuously released [2, 3]: ≥ 480 h | tumor growth inhibition compared to injection of the material alone (HepG2 cells): excellent
